Reference: patent publication US8273542B2 (priority 2005, dated 2012)
Like-named read-outs stand apart in the source and are kept apart here.

Tests used:
[1] = target: T1, mT2R5 (Mus musculus, UniProt Q9JKT4); conditions: Chandrashekar et al. 2000; cited from earlier work
T1 construct: host or cells: insect Sf9 cells
T1 sequence (Q9JKT4 1-300): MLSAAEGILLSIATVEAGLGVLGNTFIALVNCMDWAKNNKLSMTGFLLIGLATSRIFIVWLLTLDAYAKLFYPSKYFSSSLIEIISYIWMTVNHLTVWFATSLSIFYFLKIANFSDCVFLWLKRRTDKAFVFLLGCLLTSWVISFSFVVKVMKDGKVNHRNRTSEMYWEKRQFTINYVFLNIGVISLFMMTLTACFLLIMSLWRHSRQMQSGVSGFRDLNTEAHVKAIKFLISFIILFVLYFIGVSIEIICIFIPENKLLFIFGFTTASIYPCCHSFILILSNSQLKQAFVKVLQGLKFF

[2] = target: T2, hT2R54 (Homo sapiens, UniProt P59534); format: cell-based
T2 construct: expressed in transfected cells; host or cells: HEK293 cells stably expressing large T antigen and G16gust44; Transfection was transient for imaging
T2 sequence (P59534 18-338): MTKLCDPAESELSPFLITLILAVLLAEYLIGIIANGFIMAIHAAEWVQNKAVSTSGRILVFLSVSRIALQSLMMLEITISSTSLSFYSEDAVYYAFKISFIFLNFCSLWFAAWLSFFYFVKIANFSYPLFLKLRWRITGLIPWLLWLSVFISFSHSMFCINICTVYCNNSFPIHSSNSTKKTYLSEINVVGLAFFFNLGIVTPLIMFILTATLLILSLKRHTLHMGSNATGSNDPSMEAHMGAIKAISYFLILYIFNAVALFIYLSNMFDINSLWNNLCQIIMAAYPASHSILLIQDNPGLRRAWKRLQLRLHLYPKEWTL
Experimental: (§1) More particularly, the present inventors transfected HEK293 cells with a particular hT2R together with a chimeric G protein (G16 gust 44) which comprises the […] G protein sequence modified by the replacement of carboxy-44 amino acid residues with those of gustducin, and recorded responses of these cells to specific bitter ligands by calcium imaging methods.
(§2) Activation of these receptors by ranitidine is measured in a cell-based assay detecting changes in intracellular calcium concentration. In brief, human embryonic kidney cells stably expressing the large […] and a chimeric G protein (G16gust44) are transiently transfected with the a plasmid containing a particular hT2R54 nucleic acid sequence either by Ca^2+ phosphate or lipid-based systems. Transiently transfected cells are seeded into 24 well culture plates, and functional expression allowed to proceed for a total of 48 hours. The cells are then incubated with a fluorescent dye specific for calcium (Fluo-4 or Fura-2; Molecular Probes) that provides a fast, simple and reliable fluorescence-based method for detecting changes in calcium concentration inside the cell. Addition of ranitidine to cells elicits a signaling cascade leading to the activation of PLC and a subsequent increase in intracellular calcium concentration. This increase in calcium concentration changes the fluorescence properties of the calcium dye inside the cells. These changes are monitored using fluorescence microscopy and a specific design software (Imaging Workbench, Axon).
(§3) Transiently transfected cells are seeded into 24 well culture plates, and functional expression allowed to proceed for a total of 48 hours. The cells are then incubated with a fluorescent dye specific for calcium (Fluo-4 or Fura-2; Molecular Probes) that provides a fast, simple and reliable fluorescence-based method for detecting changes in calcium concentration inside the cell. […] This increase in calcium concentration changes the fluorescence properties of the calcium dye inside the cells. These changes are monitored using fluorescence microscopy and specific design software (Imaging Workbench, Axon).
as §3, with “Activation of these receptors by denatonium benzoate is measured in” for “Transiently transfected cells are seeded into 24 well culture plates, and functional expression allowed to proceed for”, “cell-based assay detecting changes in intracellular calcium concentration. […]” for “total of 48 hours.”

[3] = taste detection threshold; format: in vivo, humans
[4] = target: T3, hT2R75 (Homo sapiens, UniProt P59540); format: cell-based
T3 construct: expressed in transfected cells; host or cells: HEK293 cells stably expressing large T antigen and G16gust44, transiently transfected
T3 sequence (P59540 1-309): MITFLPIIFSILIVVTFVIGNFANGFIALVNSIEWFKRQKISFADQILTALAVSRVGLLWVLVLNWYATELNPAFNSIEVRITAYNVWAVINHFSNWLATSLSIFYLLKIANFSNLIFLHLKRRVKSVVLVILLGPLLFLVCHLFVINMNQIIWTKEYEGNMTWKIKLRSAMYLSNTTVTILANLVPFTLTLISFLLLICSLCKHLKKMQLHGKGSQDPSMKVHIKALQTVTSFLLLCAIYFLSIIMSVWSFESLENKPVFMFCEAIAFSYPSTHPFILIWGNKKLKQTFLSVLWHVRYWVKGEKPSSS
Experimental: as §1, §2
as §3, with “Activation of these receptors by denatonium benzoate is measured in” for “Transiently transfected cells are seeded into 24 well culture plates, and functional expression allowed to proceed for”, “cell-based assay detecting changes in intracellular calcium concentration. […]” for “total of 48 hours.”
(§4) Activation of these receptors by strychnine is measured in a cell-based assay detecting changes in intracellular calcium concentration. […] The cells are then incubated with a fluorescent dye specific for calcium (Fluo-4 or Fura-2; Molecular Probes) that provides a fast, simple and reliable fluorescence-based method for detecting changes in calcium concentration inside the cell. […] This increase in calcium concentration changes the fluorescence properties of the calcium dye inside the cells. These changes are monitored using fluorescence microscopy and a specific design software (Imaging Workbench, Axon).

[5] = target: T4, hT2R8 (Homo sapiens, UniProt Q9NYW2); format: cell-based
T4 construct: expressed in transfected cells; host or cells: HEK293 cells stably expressing large T antigen and chimeric G protein G16gust44; Transfection was transient for imaging
T4 sequence (Q9NYW2 1-309): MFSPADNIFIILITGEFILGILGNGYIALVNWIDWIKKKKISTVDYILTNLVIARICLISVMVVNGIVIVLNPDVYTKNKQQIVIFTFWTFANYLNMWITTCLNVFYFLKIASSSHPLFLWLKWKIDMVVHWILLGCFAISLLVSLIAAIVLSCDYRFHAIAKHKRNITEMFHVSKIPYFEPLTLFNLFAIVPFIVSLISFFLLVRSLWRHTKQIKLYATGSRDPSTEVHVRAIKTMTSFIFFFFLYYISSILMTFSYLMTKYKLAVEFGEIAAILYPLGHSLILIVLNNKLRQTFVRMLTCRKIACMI
Experimental: as §1, §2
as §4, with “denatonium benzoate” for “strychnine”, “and” for “and a”
as §4

[6] = target: T5, hT2R10 (Homo sapiens, UniProt Q9NYW0); format: cell-based; conditions: concentration not given
T5 construct: expressed in transfected cells; host or cells: HEK293 cells stably expressing large T antigen and G16gust44, transiently transfected
T5 sequence (Q9NYW0 1-307): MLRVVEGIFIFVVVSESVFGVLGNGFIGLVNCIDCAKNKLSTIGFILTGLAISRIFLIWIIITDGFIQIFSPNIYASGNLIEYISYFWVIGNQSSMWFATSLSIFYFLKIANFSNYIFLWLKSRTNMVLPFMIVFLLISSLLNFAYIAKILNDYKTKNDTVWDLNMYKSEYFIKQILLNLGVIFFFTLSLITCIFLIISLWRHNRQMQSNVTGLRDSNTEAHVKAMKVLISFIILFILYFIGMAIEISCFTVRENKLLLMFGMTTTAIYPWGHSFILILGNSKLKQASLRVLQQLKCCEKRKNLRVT
Experimental: as §1
as §4, with “denatonium benzoate” for “strychnine”, “and” for “and a”
Activation of these receptors by strychnine is measured in a cell-based assay detecting changes in intracellular calcium concentration. […] The cells are then incubated with a fluorescent dye specific for calcium (Fluo-4 or Fura-2; Molecular Probes) that provides a fast, simple and reliable fluorescence-based method for detecting changes in calcium concentration inside the cell. […]

[7] = target: T6, hT2R13 (Homo sapiens, UniProt Q9NYV9); format: cell-based; conditions: concentration not given
T6 construct: expressed in transfected cells; host or cells: HEK293 cells stably expressing large T antigen and G16gust44, transiently transfected
T6 sequence (Q9NYV9 1-303): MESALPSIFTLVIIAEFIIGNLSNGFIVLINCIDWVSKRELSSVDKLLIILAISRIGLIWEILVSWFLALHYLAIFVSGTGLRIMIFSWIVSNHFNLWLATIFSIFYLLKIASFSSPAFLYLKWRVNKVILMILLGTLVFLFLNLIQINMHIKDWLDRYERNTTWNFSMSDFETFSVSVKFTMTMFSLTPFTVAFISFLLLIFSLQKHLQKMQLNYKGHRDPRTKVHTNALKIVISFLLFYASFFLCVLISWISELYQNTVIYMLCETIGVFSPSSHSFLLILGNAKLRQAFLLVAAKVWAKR
Experimental: as §1
as §2, with “receptors by denatonium benzoate is measured” for “receptors by ranitidine is measured”, “a particular hT2R nucleic acid” for “a particular hT2R54 nucleic acid”, “the cell. […] This increase” for “the cell. Addition of ranitidine to cells elicits a signaling cascade leading to the activation of PLC and a subsequent increase in intracellular calcium concentration. This increase”, “microscopy and specific design” for “microscopy and a specific design”

[8] = target: T7, hT2R61 (Homo sapiens, UniProt P59537, H212R/W35S); format: cell-based; conditions: concentration not given
T7 construct: expressed in transfected cells; host or cells: HEK293 cells stably expressing large T antigen and G16gust44, transiently transfected
T7 sequence (P59537 1-309 W35S/H212R): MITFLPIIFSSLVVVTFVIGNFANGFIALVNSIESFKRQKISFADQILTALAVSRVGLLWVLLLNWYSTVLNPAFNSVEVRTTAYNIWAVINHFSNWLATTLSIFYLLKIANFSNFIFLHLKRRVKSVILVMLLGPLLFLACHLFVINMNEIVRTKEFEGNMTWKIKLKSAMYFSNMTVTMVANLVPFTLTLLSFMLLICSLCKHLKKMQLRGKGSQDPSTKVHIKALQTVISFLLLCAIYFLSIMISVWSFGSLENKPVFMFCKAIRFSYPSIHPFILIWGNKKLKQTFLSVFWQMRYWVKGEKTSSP
Experimental: as §1
as §2, with “receptors by denatonium benzoate is measured” for “receptors by ranitidine is measured”, “a particular hT2R nucleic acid” for “a particular hT2R54 nucleic acid”, “the cell. […] This increase” for “the cell. Addition of ranitidine to cells elicits a signaling cascade leading to the activation of PLC and a subsequent increase in intracellular calcium concentration. This increase”, “microscopy and specific design” for “microscopy and a specific design”

[9] = target: T4, hT2R8; test: dose response, stable HEK-G16gust44 line, calcium dye, FLIPR or VIPR; format: cell-based
Experimental: (§5) A HEK-G16gust44 line stably expressing high levels of hT2R8 or hT2R54 on its cell surface is used in high throughput screening assays. In this platform, the cells are seeded into 96 well or 384 well culture plates 18-24 hours before the assay. The cells are then incubated with the fluorescent calcium sensitive dye (Molecular Devices) and are stimulated and read in a standard fluorescence intensity plate reader (FLIPR or VIPR). Using this approach we have been able to further characterize the ranitidine effect on hT2R8 and hT2R54.
A HEK-G16gust44 line stably expressing high levels of hT2R8 […] cell surface is used in high throughput screening assays. In this platform, the cells are seeded into 96 well or 384 well culture plates 18-24 hours before the assay. The cells are then incubated with the fluorescent calcium sensitive dye (Molecular Devices) and are stimulated and read in a standard fluorescence intensity plate reader (FLIPR or VIPR).

[10] = target: T2, hT2R54; test: as above; format: cell-based; conditions: for dose response of hT2R54: stable HEK-G16gust44 line
Experimental: as §5
A HEK-G16gust44 cell line stably expressing high levels of hT2R54 on its cell surface is used in high throughput screening assays. In this platform, the cells are seeded into 96 well or 384 well culture plates 18-24 hours before the assay. The cells are then incubated with the fluorescent calcium sensitive dye (Molecular Devices) and are stimulated and read in a standard fluorescence intensity plate reader (FLIPR or VIPR). Using this approach we have been able to further characterize the acetaminophen effect on hT2R54.

[11] = target: T8, hT2R4 (Homo sapiens, UniProt Q9NYW5); conditions: Chandrashekar et al. 2000; cited from earlier work
T8 sequence (Q9NYW5 1-299): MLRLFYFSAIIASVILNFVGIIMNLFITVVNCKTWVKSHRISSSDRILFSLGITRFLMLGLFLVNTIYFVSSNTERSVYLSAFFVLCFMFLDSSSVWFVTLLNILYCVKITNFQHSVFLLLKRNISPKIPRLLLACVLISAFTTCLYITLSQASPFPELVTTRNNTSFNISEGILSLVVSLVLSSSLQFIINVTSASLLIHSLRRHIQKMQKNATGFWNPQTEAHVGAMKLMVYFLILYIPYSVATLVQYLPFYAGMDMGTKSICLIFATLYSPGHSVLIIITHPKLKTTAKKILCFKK

C[C@@H]1C[C@@H]([C@H](O)CC2CC(=O)NC(=O)C2)C(=O)[C@@H](C)C1 [cycloheximide]
gustducin activation by mT2R5 [1]: occurs only in response to cycloheximide

OCc1ccccc1O[C@@H]1O[C@H](CO)[C@@H](O)[C@H](O)[C@H]1O [salicin]
response of hT2R54 in calcium imaging ([2]; 10 μM): does not respond

CNC(=C[N+](=O)[O-])NCCSCc1ccc(CN(C)C)o1 [ranitidine]
taste detection threshold / bitter taste threshold for humans [3]: 78 µM

CC[N+](CC)(CC(=O)Nc1c(C)cccc1C)Cc1ccccc1 [denatonium benzoate]
response of hT2R75 in calcium imaging ([4]; concentration not given): respond specifically
response of hT2R8 in calcium imaging ([5]; concentration not given): respond specifically
response of hT2R10 in calcium imaging [6]: respond specifically
response of hT2R54 in calcium imaging ([2]; concentration not given): respond specifically
response of hT2R13 in calcium imaging [7]: respond specifically
response of hT2R61 in calcium imaging [8]: respond specifically
EC50 ([9]; dose response, FIG. 6): 450000 nM
dose response of hT2R8 ([9]; stable HEK-G16gust44 line): typical dose-response relationship
EC50 ([10]; dose response, FIG. 4, read-out: EC50, hT2R54): 380 nM
dose response of hT2R54 [10]: typical dose-response relationship
taste detection threshold ([3]; in vivo): 24 mM
effective denatonium concentrations activating hT2R4 [11]: 1.5 mM

OC[C@H]1O[C@@](CO)(O[C@H]2O[C@H](CO)[C@@H](O)[C@H](O)[C@H]2O)[C@@H](O)[C@@H]1O [sucrose]
response of hT2R75 in calcium imaging ([4]; 10 μM): did not respond
response of hT2R8 in calcium imaging ([5]; 10 μM): did not respond
response of hT2R54 in calcium imaging ([2]; 10 μM): did not respond

CC(=O)Nc1ccc(O)cc1 [acetaminophen]
response of hT2R54 in calcium imaging ([2]; 10 μM): responded specifically
EC50 [10]: 1830 nM
dose response of hT2R54 [10]: typical dose-response relationship
taste detection threshold / bitter taste threshold for humans [3]: 1.25 µM
